Usually IC50 stands for the concentration that gives 50% inhibition. Low values mean inhibition by little substance, high ones a need for much substance.

Where two headings read alike, the source gives them in different places.

This passage reports IC50 and GI50 results from patent publication US12622909B2, “Allosteric EGFR inhibitors and methods of use thereof” (Dana-Farber Cancer Institute, Inc., priority 2019, dated 2026).

One assay addresses EGFR L858R (Homo sapiens, UniProt P00533, L858R). As to the kind of experiment: HTRF-based EGFR biochemical assay (L858R). The conditions noted are these: 100 μM ATP, enzyme 0.1 nM. The procedure:
(§1) EGFR biochemical activity measurements were carried out using the homogeneous time-resolved fluorescence (HTRF) assay (Cisbio). Inhibitors and DMSO normalizations were first dispensed to empty black low-volume 384-well plates (Corning) with D300 digital liquid dispenser (HP). All reactions were carried out at room temperature and solutions were added to plates with a Multidrop Combi Reagent Dispenser (ThermoFisher). The reaction mixture (10 μL final volume) contained 1 μM tyrosine kinase peptide-biotin substrate and mutant EGFR in a reaction buffer (50 mM HEPES pH 7.0, 5 mM MgCl2, 1 mM MnCl2, 0.01% BSA, 2 mM TCEP, 0.1 mM NaVO4). […] Enzyme reaction solution (2× concentrations, 5 μL) was added to 384-well plates containing compounds and incubated for 30 mins. Enzyme reactions were initiated with the addition of 5 μL of ATP to a final concentration of 100 μM and reacted for 20 mins. Reactions were quenched with the addition of 10 μL of phospho-tyrosine antibody-Europium(III) cryptate (1-to-180 volume ratio) and Streptavidin-XL665 (46.7 nM) in EDTA-containing detection buffer, then incubated at room temperature for 1 hour, and read with a PHERAstar plate reader (excitation=337 nm, emission=620 nm and 665 nm).
In general terms: In TR-FRET formats the signal depends on donor and acceptor labels being close together.

The next assay addresses EGFR L858R/T790M (Homo sapiens, UniProt P00533, L858R/T790M). As to the kind of experiment: HTRF-based EGFR biochemical assay (L858R/T790M). The conditions noted are these: 100 μM ATP, enzyme 0.02 nM. The procedure:
as §1, with “mins.” for “mins. Reactions were quenched with the addition of 10 μL of phospho-tyrosine antibody-Europium(III) cryptate (1-to-180 volume ratio) and Streptavidin-XL665 (46.7 nM) in EDTA-containing detection buffer, then incubated at room temperature for 1 hour, and read with a PHERAstar plate reader (excitation=337 nm, emission=620 nm and 665 nm).”

Assay [1] has as its target EGFR L858R/T790M mutant Ba/F3 cells (Homo sapiens, UniProt P00533, T790M/L858R, cells depend on it). The experiment in a line: Ba/F3 cell proliferation (Cell Titer Glo). The class given is cell-based, murine. The conditions noted are these: 72 hours. The text has this:
All cell lines were maintained in RPMI 1640 (Cellgro; Mediatech Inc., Herndon, CA) supplemented with 10% FBS, 100 units/mL penicillin, 100 units/mL streptomycin. The EGFR I941R mutation was introduced via site directed mutagenesis using the Quick Change Site-Directed Mutagenesis kit (Stratagene; La Jolla, CA) according to the manufacturer's instructions. All constructs were confirmed by DNA sequencing. The constructs were shuttled into the retroviral vector JP1540 using the Cre-recombination system (Agilent Technologies, Santa Clara, CA). Ba/F3 cells were then infected with retrovirus per standard protocols, as described previously (Zhou, et al, Nature 2009). Stable clones were obtained by selection in puromycin (2 μg/ml).
Growth and inhibition of growth was assessed by the Cell Titer Glo assay (Promega, Madison, WI) and was performed according to the manufacturer's instructions. The Cell Titer Glo assay is a luminescence-based method used to determine the number of viable cells based on quantitation of the ATP present, which is directly proportional to the amount of metabolically active cells present. […] All experimental points were set up in triplicates in 384-well plates and all experiments were repeated at least three times. […] The curves were fitted using a non-linear regression model with a sigmoidal dose response.
A general note: ATP-based viability assays read luminescence as a measure of living cells.

The mark [2] stands for this setting: in combination with 1 μg/ml cetuximab, read-out: Cell IC50 BaF3 L858R/T790M compound + cetuximab.
Where [3] appears, read: single agent, read-out: Cell IC50 EGFR BaF3 L858R/T790M.

EGFR L858R/T790M, sequence (P00533 25-1210 T790M/L858R): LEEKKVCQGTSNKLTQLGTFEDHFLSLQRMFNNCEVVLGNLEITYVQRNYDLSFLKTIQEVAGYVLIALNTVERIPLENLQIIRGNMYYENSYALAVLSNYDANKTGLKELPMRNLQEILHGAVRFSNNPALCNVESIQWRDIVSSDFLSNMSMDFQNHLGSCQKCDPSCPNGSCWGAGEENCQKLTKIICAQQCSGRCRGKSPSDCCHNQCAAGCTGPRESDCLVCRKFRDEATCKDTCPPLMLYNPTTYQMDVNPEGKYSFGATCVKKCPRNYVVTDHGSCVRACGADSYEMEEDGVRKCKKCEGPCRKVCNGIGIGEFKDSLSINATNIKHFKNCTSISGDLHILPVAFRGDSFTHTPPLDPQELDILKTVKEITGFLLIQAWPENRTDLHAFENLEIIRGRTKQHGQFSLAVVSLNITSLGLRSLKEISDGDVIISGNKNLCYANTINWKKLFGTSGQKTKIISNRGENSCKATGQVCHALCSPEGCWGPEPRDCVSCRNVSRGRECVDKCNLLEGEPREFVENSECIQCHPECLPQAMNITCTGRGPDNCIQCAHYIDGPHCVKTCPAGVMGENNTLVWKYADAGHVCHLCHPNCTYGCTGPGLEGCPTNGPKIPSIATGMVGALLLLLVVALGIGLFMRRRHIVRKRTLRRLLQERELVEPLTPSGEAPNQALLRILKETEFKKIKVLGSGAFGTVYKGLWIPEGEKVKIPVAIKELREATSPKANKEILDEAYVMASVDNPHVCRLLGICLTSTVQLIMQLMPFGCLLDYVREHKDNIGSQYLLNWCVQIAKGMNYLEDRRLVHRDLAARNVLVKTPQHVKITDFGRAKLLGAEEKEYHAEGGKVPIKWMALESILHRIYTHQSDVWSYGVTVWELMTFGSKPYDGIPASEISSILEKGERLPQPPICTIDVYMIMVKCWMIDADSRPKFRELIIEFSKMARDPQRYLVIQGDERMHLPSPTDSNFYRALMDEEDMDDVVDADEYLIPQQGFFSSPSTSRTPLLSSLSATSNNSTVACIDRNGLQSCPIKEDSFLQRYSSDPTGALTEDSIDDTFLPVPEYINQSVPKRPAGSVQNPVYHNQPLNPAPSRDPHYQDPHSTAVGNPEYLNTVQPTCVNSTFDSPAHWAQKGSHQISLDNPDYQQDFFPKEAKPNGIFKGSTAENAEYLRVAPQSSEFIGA
EGFR L858R, sequence (P00533 25-1210 L858R): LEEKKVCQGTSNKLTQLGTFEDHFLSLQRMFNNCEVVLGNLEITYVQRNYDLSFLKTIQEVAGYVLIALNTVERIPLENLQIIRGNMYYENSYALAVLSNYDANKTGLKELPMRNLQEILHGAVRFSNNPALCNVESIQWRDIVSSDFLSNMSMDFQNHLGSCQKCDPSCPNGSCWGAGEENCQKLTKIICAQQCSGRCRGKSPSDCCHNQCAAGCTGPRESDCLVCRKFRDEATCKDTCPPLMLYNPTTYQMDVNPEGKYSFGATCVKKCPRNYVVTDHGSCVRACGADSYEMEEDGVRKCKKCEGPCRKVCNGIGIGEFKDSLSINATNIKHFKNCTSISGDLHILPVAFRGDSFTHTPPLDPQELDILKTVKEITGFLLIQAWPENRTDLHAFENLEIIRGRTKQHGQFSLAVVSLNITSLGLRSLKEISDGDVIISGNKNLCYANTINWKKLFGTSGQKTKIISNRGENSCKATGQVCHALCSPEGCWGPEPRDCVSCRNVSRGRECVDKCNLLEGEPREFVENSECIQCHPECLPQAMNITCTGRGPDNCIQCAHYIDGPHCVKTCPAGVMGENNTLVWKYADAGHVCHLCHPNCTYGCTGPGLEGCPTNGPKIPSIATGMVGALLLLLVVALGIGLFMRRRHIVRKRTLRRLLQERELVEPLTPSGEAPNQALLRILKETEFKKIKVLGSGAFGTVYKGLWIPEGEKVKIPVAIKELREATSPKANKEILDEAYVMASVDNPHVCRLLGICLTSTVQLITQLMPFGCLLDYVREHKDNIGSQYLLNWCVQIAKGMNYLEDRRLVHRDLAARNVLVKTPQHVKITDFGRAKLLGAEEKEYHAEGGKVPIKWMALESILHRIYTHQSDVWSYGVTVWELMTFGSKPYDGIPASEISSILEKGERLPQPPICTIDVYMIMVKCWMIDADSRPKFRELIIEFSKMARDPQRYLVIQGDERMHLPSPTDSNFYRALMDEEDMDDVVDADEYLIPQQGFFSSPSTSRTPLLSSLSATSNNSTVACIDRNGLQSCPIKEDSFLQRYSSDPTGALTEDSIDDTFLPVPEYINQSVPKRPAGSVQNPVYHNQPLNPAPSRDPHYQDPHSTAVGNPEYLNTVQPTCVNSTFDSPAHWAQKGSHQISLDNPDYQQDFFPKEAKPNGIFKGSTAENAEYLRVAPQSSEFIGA
EGFR L858R/T790M mutant Ba/F3 cells, sequence (P00533 whole entry T790M/L858R): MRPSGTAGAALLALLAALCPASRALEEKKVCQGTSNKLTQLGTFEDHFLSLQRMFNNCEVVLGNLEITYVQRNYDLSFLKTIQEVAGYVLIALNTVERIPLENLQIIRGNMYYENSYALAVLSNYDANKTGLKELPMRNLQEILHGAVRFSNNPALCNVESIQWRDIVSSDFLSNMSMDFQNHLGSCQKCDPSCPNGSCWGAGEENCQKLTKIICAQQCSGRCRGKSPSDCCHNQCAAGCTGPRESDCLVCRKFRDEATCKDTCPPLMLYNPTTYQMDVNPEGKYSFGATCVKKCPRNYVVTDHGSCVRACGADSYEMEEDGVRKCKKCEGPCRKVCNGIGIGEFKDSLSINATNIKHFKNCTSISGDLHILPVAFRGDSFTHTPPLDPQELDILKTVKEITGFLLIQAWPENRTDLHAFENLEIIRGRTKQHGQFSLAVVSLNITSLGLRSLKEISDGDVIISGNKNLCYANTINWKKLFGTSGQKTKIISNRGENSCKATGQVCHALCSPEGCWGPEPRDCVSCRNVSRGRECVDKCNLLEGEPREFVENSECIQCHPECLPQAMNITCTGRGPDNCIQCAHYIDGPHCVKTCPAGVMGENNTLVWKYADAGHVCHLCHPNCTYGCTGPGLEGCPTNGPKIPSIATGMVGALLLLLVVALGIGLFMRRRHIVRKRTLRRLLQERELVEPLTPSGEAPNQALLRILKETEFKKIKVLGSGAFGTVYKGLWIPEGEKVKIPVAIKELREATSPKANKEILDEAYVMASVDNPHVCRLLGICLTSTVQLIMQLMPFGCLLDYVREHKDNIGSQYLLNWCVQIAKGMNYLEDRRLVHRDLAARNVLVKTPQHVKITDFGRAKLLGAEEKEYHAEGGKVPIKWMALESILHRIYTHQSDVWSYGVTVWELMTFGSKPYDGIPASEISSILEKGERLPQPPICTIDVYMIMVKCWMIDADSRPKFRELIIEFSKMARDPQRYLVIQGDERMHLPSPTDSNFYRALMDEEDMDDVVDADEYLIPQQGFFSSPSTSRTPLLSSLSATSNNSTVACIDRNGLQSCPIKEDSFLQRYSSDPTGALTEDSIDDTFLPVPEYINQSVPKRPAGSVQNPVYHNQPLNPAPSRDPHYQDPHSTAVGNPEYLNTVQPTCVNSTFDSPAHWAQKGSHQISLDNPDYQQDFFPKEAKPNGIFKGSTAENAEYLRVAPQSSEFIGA

As to `CN1CCN(c2ccc(-c3ccc4ccn(C(C(=O)Nc5nccs5)c5ccccc5)c(=O)c4c3)cc2)CC1` (centres unmarked) [Compound 019, 2-(7-(4-(4-Methylpiperazin-1-yl)-phenyl)-1-oxoisoquinolin-2(1H)-yl)-2-phenyl-N-(thiazol-2-yl)acetamide], the 50% inhibitory concentration (IC50) is 35 nM at EGFR L858R and 5 nM on EGFR L858R/T790M. The GI50 in assay [1] (setting [2]) turned out to be 44 nM; in assay [1] (setting [3]), 1850 nM.
For `CN1CCC(c2ccc(-c3cc4ncn(C(C(=O)Nc5nccs5)c5ccccc5)c(=O)c4cc3F)cc2)CC1` (centres unmarked) [Compound 020, 2-(6-Fluoro-7-(4-(1-methylpiperidin-4-yl)phenyl)-4-oxoquinazolin-3(4H)-yl)-2-phenyl-N-(thiazol-2-yl)acetamide] the same measures were 26 nM, 6 nM, 780 nM and 1420 nM.
The matching figures for `CN1CCN(c2ccc(-c3cc4ncn(C(C(=O)Nc5nccs5)c5ccccc5)c(=O)c4cc3F)cc2)CC1` (centres unmarked) [Compound 021, 2-(6-Fluoro-7-(4-(4-methylpiperazin-1-yl)phenyl)-4-oxoquinazolin-3(4H)-yl)-2-phenyl-N-(thiazol-2-yl)acetamide]: 103 nM, 16 nM, 970 nM and 2900 nM.
For `CN1CCC(c2ccc(-c3ccc4c(=O)n(C(C(=O)Nc5nccs5)c5ccccc5)cc(F)c4c3)cc2)CC1` (centres unmarked) [Compound 022, 2-(4-Fluoro-6-(4-(1-methylpiperidin-4-yl)phenyl)-1-oxoisoquinolin-2(1H)-yl)-2-phenyl-N-(thiazol-2-yl)acetamide] the same measures were 2 nM, 0.6 nM, 20 nM and 1260 nM.
Consider `CN1CCN(c2ccc(-c3ccc4c(=O)n(C(C(=O)Nc5nccs5)c5ccccc5)cc(F)c4c3)cc2)CC1` (centres unmarked) [Compound 023, 2-(4-Fluoro-6-(4-(4-methylpiperazin-1-yl)phenyl)-1-oxoisoquinolin-2(1H)-yl)-2-phenyl-N-(thiazol-2-yl)-acetamide], for which the values for the IC50 on EGFR L858R and against EGFR L858R/T790M were 7 nM and 3 nM, respectively. For the same compound, the results for the GI50 in assay [1] (setting [2]) and in assay [1] (setting [3]) were 110 nM and 2410 nM, respectively.
The matching figures for `CN1CCC(c2ccc(-c3ccc4ccn(C(C(=O)Nc5nccs5)c5cccc(F)c5)c(=O)c4c3)cc2)CC1` (centres unmarked) [Compound 024, 2-(3-Fluorophenyl)-2-(7-(4-(1-methylpiperidin-4-yl)phenyl)-1-oxoisoquinolin-2(1H)-yl)-N-(thiazol-2-yl)-acetamide]: 7 nM, 1 nM, 90 nM and 1770 nM.
For `CN1CCC(c2ccc(-c3ccc4c(=O)n(C(C(=O)Nc5nccs5)c5cccc(F)c5)ccc4c3)cc2)CC1` (centres unmarked) [Compound 025, 2-(3-Fluorophenyl)-2-(6-(4-(1-methyl-piperidin-4-yl)phenyl)-1-oxo-isoquinolin-2(1H)-yl)-N-(thiazol-2-yl)-acetamide], the results for the half-maximal inhibitory concentration (IC50) on EGFR L858R and at EGFR L858R/T790M were 5 nM and 3 nM, respectively. For the same compound, the GI50 in assay [1] (setting [2]) was found to be 20 nM; in assay [1] (setting [3]) it was 900 nM.
For `CN1CCC(c2ccc(-c3ccc4c(=O)n(C(C(=O)Nc5nccs5)c5ccccc5)ncc4c3)cc2)CC1` (centres unmarked) [Compound 026, 2-(6-(4-(1-Methylpiperidin-4-yl)-phenyl)-1-oxophthalazin-2(1H)-yl)-2-phenyl-N-(thiazol-2-yl)acetamide] the same measures were 67 nM, 10 nM, 560 nM and 1220 nM.
The matching figures for `CN1CCN(c2ccc(-c3ccc4c(=O)n(C(C(=O)Nc5nccs5)c5ccccc5)ncc4c3)cc2)CC1` (centres unmarked) [Compound 027, 2-(6-(4-(4-Methylpiperazin-1-yl)-phenyl)-1-oxophthalazin-2(1H)-yl)-2-phenyl-N-(thiazol-2-yl)acetamide]: 209 nM, 18 nM, 1700 nM and 3460 nM.
Take `CN1CCC(c2ccc(-c3ccc4c(=O)n(C(C(=O)Nc5nccs5)c5cccc(F)c5)cnc4c3)cc2)CC1` (centres unmarked) [Compound 028, 2-(3-Fluorophenyl)-2-(7-(4-(1-methyl-piperidin-4-yl)phenyl)-4-oxo-quinazolin-3(4H)-yl)-N-(thiazol-2-yl)-acetamide]: the IC50 on EGFR L858R stood at 21 nM; at EGFR L858R/T790M, 7 nM. The results for the GI50 in assay [1] (setting [2]) and in assay [1] (setting [3]) were 88 nM and 1580 nM, respectively.
On to `CN1CCN(c2ccc(-c3ccc4c(=O)n(C(C(=O)Nc5nccs5)c5cccc(F)c5)cnc4c3)cc2)CC1` (centres unmarked) [Compound 029, 2-(3-Fluorophenyl)-2-(7-(4-(4-methyl-piperazin-1-yl)phenyl)-4-oxo-quinazolin-3(4H)-yl)-N-(thiazol-2-yl)-acetamide], for which the figures for the IC50 against EGFR L858R and against EGFR L858R/T790M were 91 nM and 18 nM, respectively. Besides, the GI50 in assay [1] (setting [2]) was determined as 560 nM; in assay [1] (setting [3]) it was 3450 nM.
The matching figures for `CN1CCC(c2ccc(-c3ccc4ncn(C(C(=O)Nc5nccs5)c5cccc(F)c5)c(=O)c4c3)cc2)CC1` (centres unmarked) [Compound 030, 2-(3-Fluorophenyl)-2-(6-(4-(1-methyl-piperidin-4-yl)phenyl)-4-oxo-quinazolin-3(4H)-yl)-N-(thiazol-2-yl)-acetamide]: 7 nM, 1 nM, 4 nM and 800 nM.
With `CN1CCN(c2ccc(-c3ccc4ncn(C(C(=O)Nc5nccs5)c5cccc(F)c5)c(=O)c4c3)cc2)CC1` (centres unmarked) [Compound 031, 2-(3-Fluorophenyl)-2-(6-(4-(4-methyl-piperazin-1-yl)phenyl)-4-oxo-quinazolin-3(4H)-yl)-N-(thiazol-2-yl)-acetamide], the IC50 was found to be 2 nM against EGFR L858R and 0.2 nM against EGFR L858R/T790M. For the same compound, the GI50 in assay [1] (setting [2]) amounted to 10 nM; in assay [1] (setting [3]), 1350 nM.
For `CN1CCC(c2ccc(-c3ccc4ncn(C(C(=O)Nc5ccccn5)c5cccc(F)c5)c(=O)c4c3)cc2)CC1` (centres unmarked) [Compound 032, 2-(3-Fluorophenyl)-2-(6-(4-(1-methyl-piperidin-4-yl)phenyl)-4-oxo-quinazolin-3(4H)-yl)-N-(pyridin-2-yl)-acetamide] the same measures were 4 nM, 0.4 nM, 21 nM and 1580 nM.
For `CN1CCN(c2ccc(-c3ccc4ncn(C(C(=O)Nc5ccccn5)c5cccc(F)c5)c(=O)c4c3)cc2)CC1` (centres unmarked) [Compound 033, 2-(3-Fluorophenyl)-2-(6-(4-(4-methyl-piperazin-1-yl)phenyl)-4-oxo-quinazolin-3(4H)-yl)-N-(pyridin-2-yl)-acetamide] the same measures were 51 nM, 2 nM, 44 nM and 1550 nM.
The matching figures for `O=C(Nc1ccccn1)C(c1cccc(F)c1)n1cnc2ccc(Br)cc2c1=O` (centres unmarked) [Compound 034, 2-(6-Bromo-4-oxoquinazolin-3(4H)-yl)-2-(3-fluorophenyl)-N-(pyridin-2-yl)acetamide]: above 1000 nM, 18 nM, 1800 nM and above 10000 nM.
With `O=C(Nc1nccs1)C(c1ccccc1)n1cc(F)c2ccc(Br)cc2c1=O` (centres unmarked) [Compound 035, 2-(7-Bromo-4-fluoro-1-oxo-isoquinolin-2(1H)-yl)-2-phenyl-N-(thiazol-2-yl)acetamide], the IC50 against EGFR L858R is 101 nM; at EGFR L858R/T790M, 11 nM. Moreover, the GI50 is 350 nM in assay [1] (setting [2]) and above 10000 nM in assay [1] (setting [3]).
